Patent publication US5593994A, “Prostaglandin synthase inhibitors” (The DuPont Merck Pharmaceutical Company, priority 1994, dated 1997)
pIC50: −log10 of the molar value.

Tests used:
PGHS 2 = biological target: T1, PGHS 2 (Homo sapiens, UniProt P35354); assay: Prostaglandin G/H Synthase Inhibition Assay (PGHS 2); assay type: biochemical; conditions: Table A; 100 μM arachidonate; 2 min preincubation; read-out: IC50 (PGHS2)
T1 sequence (P35354 18-604): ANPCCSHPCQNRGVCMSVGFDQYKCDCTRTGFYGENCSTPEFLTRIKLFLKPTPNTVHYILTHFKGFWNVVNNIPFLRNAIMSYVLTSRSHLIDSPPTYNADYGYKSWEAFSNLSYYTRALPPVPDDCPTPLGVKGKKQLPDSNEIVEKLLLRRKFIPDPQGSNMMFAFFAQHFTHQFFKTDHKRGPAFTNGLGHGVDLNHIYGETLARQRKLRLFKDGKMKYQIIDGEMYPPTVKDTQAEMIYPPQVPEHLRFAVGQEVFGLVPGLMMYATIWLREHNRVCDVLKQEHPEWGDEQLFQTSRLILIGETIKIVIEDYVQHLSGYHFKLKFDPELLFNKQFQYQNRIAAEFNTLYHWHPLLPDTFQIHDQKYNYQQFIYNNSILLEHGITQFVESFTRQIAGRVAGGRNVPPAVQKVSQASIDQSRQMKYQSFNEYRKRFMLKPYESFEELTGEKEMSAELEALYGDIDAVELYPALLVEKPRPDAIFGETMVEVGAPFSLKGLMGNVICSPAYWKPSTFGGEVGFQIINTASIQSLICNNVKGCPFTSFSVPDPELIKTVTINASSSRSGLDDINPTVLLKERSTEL
Method: Prostaglandin G/H synthase (cyclooxygenase, PGHS, Cox) activity was determined spectrophotometrically essentially as described by Kulmacz et al (reference). […] The assay was adapted to a 96 well microtiter dish format as described below. […] The reaction plate was immediately placed in a microtiter reader and readings made at 610 nm for 1.5 min at 3 sec intervals. Reaction rates were calculated from the slope of the linear portion of the absorbance versus time curve. Rates for control samples lacking added inhibitors were used to calculate the percent inhibition of each test compound.
The ratio PGHS 1 IC50 /PGHS 2 IC50 is referred to as the selectivity ratio.

[1] = test system: PGE2 production in human monocytes; assay: Cellular Assay: inhibition of PGE2 production in LPS-stimulated human peripheral blood monocytes; assay type: cell-based; conditions: Monocyte, Table B, LPS 1 μg/ml, 17.5 hours
Method: Human peripheral blood monocytes were obtained from normal donor blood by leukophoresis and isolated by elutriation. Monocytes were suspending in RPMI medium at 2×10^6 cells/ml, and plated at 200 μL/well in 96 well microtiter plates. Test compounds were added to the cells at appropriate concentration in DMSO such that the final DMSO concentration was 0.5% in the medium. Cells and compound or DMSO alone were incubated for 1 hour at 37° C. at which time cells were stimulated with 1 μg/ml LPS (Lipopolysaccharide, Salmonella typehrium, 5 mg/ml in 0.1% aqueous TEA) to induce PGHS 2 enzyme activity and prostaglandin production.

prostaglandin synthesis = conditions: in vivo; cited from earlier work
[2] = test system: both isoenzymes (prostaglandin G/H synthase, Cox 1 and Cox 2); conditions: cited from earlier work
Cox-2 = conditions: cited from earlier work

Row | Compound | pIC50 (PGHS 2) | also measured
1 | CS(=O)(=O)c1ccc(-c2ccccc2-c2ccc3ccccc3c2)cc1 [Example 49] | 4.30 to 5.00 | pIC50 [1]: 7.00 to 7.29
2 | COc1cccc2cc(-c3ccccc3-c3ccc(S(C)(=O)=O)cc3)ccc12 [Example 50] | 4.30 to 5.00 | 
3 | CS(=O)(=O)c1ccc(-c2ccccc2-c2ccc(F)cc2)cc1 [Example 2] |  | pIC50 [1]: 7.30 to 8.00
4 | CS(=O)(=O)c1ccc(-c2cc([N+](=O)[O-])ccc2-c2ccc(F)cc2)cc1 [Example 80] | 4.30 to 5.00 | 
5 | CS(=O)(=O)Nc1ccc([N+](=O)[O-])cc1OC1CCCCC1 [NS-398] |  | gastric lesions (prostaglandin synthesis): nor produce gastic lesions; gastric prostaglandin synthesis (prostaglandin synthesis): did not block gastric prostaglandin synthesis; mode of inhibition [2]: competitive toward both isoenzymes; time-dependence of inhibition (Cox-2; Cox-2, longer exposure): selective time-dependence against Cox-2; tightness / reversibility of binding inhibition (Cox-2; reversed only following enzyme denaturation and organic extraction): extremely tight binding inhibition
6 | CS(=O)(=O)c1ccc(-c2ccc(N)cc2-c2ccc(F)cc2)cc1 [Example 79] | 3.52 to 4.30 | 
7 | CS(=O)(=O)c1ccc(-c2ccccc2-c2cccnc2)cc1 [Example 51] | 3.52 to 4.30 | 
8 | CS(=O)(=O)c1ccc(-c2ccccc2-c2ccccc2)cc1 [Example 1] | 4.30 to 5.00 | 
9 | CS(=O)(=O)c1ccc(-c2ccc([N+](=O)[O-])cc2-c2ccc(F)cc2)cc1 [Example 81] | 4.30 to 5.00 | pIC50 [1]: 7.00 to 7.29
10 | CS(=O)(=O)c1ccc(-c2ccccc2-c2ccc3ccccc3n2)cc1 [Example 52] | 3.52 to 4.30 | 
11 | CS(=O)(=O)c1ccc(-c2ccccc2C2CCCCC2)cc1 [Example 71] | 4.30 to 5.00 | 
12 | CS(=O)(=O)c1ccc(-c2ccccc2C2=CCCCC2)cc1 [Example 70, 1-Cyclohexene-2-(4'-methylsulfonylphenyl)benzene] | 4.30 to 5.00 | 
13 | CS(=O)(=O)c1ccc(-c2cc(N)ccc2-c2ccc(F)cc2)cc1 [Example 78] | 3.52 to 4.30 | 
14 | CS(=O)(=O)c1ccc(-c2ccccc2-c2cc3ccccc3s2)cc1 [Example 48] | > 5.00 | pIC50 [1]: 7.30 to 8.00
15 | CS(=O)(=O)c1ccc(-c2cc(O)ccc2-c2ccccc2)cc1 [Example 87, 3-(4'-methylsulfonylphenyl)-4-phenylphenol] | 3.52 to 4.30 | 
16 | COc1ccc(-c2ccccc2-c2ccc(S(C)(=O)=O)cc2)cc1 [Example 5] | > 5.00 | pIC50 [1]: 7.30 to 8.00
17 | COCc1ccc(-c2ccccc2-c2ccc(S(C)(=O)=O)cc2)cc1 [Example 42] | > 5.00 | 
18 | CS(=O)(=O)c1ccc(-c2ccccc2-c2ccc(C=O)cc2)cc1 [Example 41] | 4.30 to 5.00 | pIC50 [1]: 7.00 to 7.29
19 | COc1cccc(-c2ccccc2-c2ccc(S(C)(=O)=O)cc2)c1 [Example 4] | 4.30 to 5.00 | pIC50 [1]: 7.00 to 7.29
20 | CS(=O)(=O)c1ccc(-c2ccccc2-c2ccc(N)cc2)cc1 [Example 16] | 3.52 to 4.30 | 
21 | Cc1ccc(-c2ccccc2-c2ccc(S(C)(=O)=O)cc2)cc1 [Example 3] | 4.30 to 5.00 | 
22 | CS(=O)(=O)c1ccc(-c2ccccc2-c2ccc3sccc3c2)cc1 [Example 47] | 4.30 to 5.00 | 
23 | COc1ccc(-c2ccccc2-c2ccc(S(C)(=O)=O)cc2)cc1OC [Example 6] | 3.52 to 4.30 | 
24 | CS(=O)(=O)c1ccc(-c2ccccc2-c2ccc(CO)cc2)cc1 [Example 43] | 3.52 to 4.30 | 
25 | CS(=O)(=O)c1ccc(-c2ccccc2-c2cnc3ccccc3c2)cc1 [Example 53] | 3.52 to 4.30 | 
26 | CN(C)c1ccc(-c2ccccc2-c2ccc(S(C)(=O)=O)cc2)cc1 [Example 20] | 4.30 to 5.00 | pIC50 [1]: 7.30 to 8.00

More lines, main results first:

Row | pIC50 (PGHS 2) | Compound | also measured
27 | 3.52 to 4.30 | CS(=O)(=O)c1ccc(-c2ccccc2OCc2ccccc2)cc1 [Example 145] | 
28 | > 5.00 | NS(=O)(=O)c1ccc(-c2ccccc2-c2ccccc2)cc1 [Example 312, 2-(4-aminosulfonylphenyl)-1-biphenyl] | 
29 | 4.30 to 5.00 | CS(=O)(=O)c1ccc(-c2cccnc2-c2ccc(F)cc2)cc1 [Example 411] | 
30 | > 5.00 | CS(=O)(=O)c1ccc(-c2ccccc2Oc2ccc(F)cc2)cc1 [Example 141] | 
31 | > 5.00 | CS(=O)(=O)c1ccc(-c2ccccc2C#Cc2ccccc2)cc1 [Example 152] | 
32 | 4.30 to 5.00 | CS(=O)(=O)c1ccc(-c2cc3ccccc3cc2-c2ccccc2)cc1 [Example 401, 2-(4-methylsulfonylphenyl)-3-phenylnaphthalene] | 
33 | 4.30 to 5.00 | CS(=O)(=O)c1ccc(-c2ccccc2N2CCCCC2)cc1 [Example 151, 1-[2-(4-methylsulfonylphenyl)phenyl]piperidine] | 
34 | > 5.00 | CS(=O)(=O)c1ccc(-c2ccccc2OC2CCCCC2)cc1 [Example 143] | 
35 | 3.52 to 4.30 | CS(=O)(=O)c1ccc(-c2ccccc2-n2cccc2)cc1 [Example 153, 1-[2-(4'-methylsulfonylphenyl)phenyl]pyrrole] | 
36 | 3.52 to 4.30 | CS(=O)(=O)c1ccc(-c2ccccc2-c2ccccc2)c(Cl)c1 [Example 305] | 
37 | 4.30 to 5.00 | CC(=O)c1ccc(-c2ccc(F)cc2)c(-c2ccc(S(C)(=O)=O)cc2)c1 [Example 93] | 
38 | > 5.00 | CS(=O)(=O)c1ccc(-c2ccccc2Oc2ccccc2)cc1 [Example 144, 1-Phenoxy-2-(4'-methylsulfonylphenyl)benzene] | pIC50 [1]: 7.00 to 7.29
39 | 4.30 to 5.00 | COc1ccc(-c2ncccc2-c2ccc(S(C)(=O)=O)cc2)cc1 [Example 412] | 
